Read-outs that look alike come from different tables or passages of the source.
Columns and labels:
[1] = Population PK (popPK) model of migalastat in adults (NONMEM, bootstrap); parameters: species or system human; conditions: for Typical V2/F, Estimate (% RSE): Fabry disease; for Typical V2/F, Estimate (% RSE) / Typical Q/F, Estimate (% RSE) / Typical V3/F, Estimate (% RSE): body weight ≥ 70 kg
Protocol: A population pharmacokinetics (popPK) model previously developed from healthy adult volunteers and adult patients with Fabry disease after oral migalastat administration. After pooling plasma concentration-time data from Phase I, II, and III studies of AT1001 administered orally in adults using a range of doses from 25 mg to 675 mg and regimens under fasting conditions. […] In contrast, other covariates such as sex, age, drug formulation (solution or suspension vs 25 mg capsule vs 150 mg capsule) were not statistically/clinically significant. Since renal function gradually increases from birth and reaches adult levels by the second year of life (Rubin 1949), there are no expected age-dependent changes in eGFR in the pediatric population 2 years and older than adults. Additionally, pediatric patients with Fabry disease usually have a normal renal function or may experience renal hyperfiltration (Hopkin 2008); therefore, weight-based dosing regimens, assuming that pediatrics have a normal renal function, were planned for the simulations in pediatric Fabry patients. NONMEM program was used to develop the population PK model of migalastat in adults using first-order conditional estimation with interaction (FOCE-I). Simulations were conducted using NONMEM to obtain plasma concentration-time; all graphical analyses were performed using R; noncompartmental analysis and pharmacokinetic parameters summaries were conducted using Phoenix WinNonlin. Bootstrapping and visual predictive checks (VPC)s were conducted using Perl-speaks-NONMEM (PsN) R packages of popED and mrgsolve were used in the optimal sampling strategy. […] The overall purpose of the model development was to come up with a model for pediatric extrapolation. […] Moreover, pediatric CLT/F values extrapolated from the non-renal model were higher than the overall CLT/F approach, resulting in higher pediatric doses for achieving equivalent exposures with adults which was a less conservative approach. Therefore, the overall CLT/F scaling approach is more conservative and was chosen for the final model, which is shown in Table 6. The estimated parameters from bootstrap (see Table 6) were nearly identical to those estimated from the original dataset. All parameters were estimated with adequate precision.

[2] = system: patients with Fabry disease with amenable mutations; format: in vivo, human
Protocol: These analyses included data from 4 Phase 2 and 4 Phase 3 clinical trials with the data cutoff of Feb.
FAB-CL-202 (NCT00283959), FAB-CL-203 (NCT00283933), and FAB-CL-204 (NCT00304512) were phase 2, open-label, noncomparative studies that evaluated the safety, tolerability, pharmacokinetics (PK), and pharmacodynamics (PD) of migalastat (dose range: 50-250 mg) in patients with Fabry disease.
FAB-CL-205 (NCT0052607) was a phase 2, long-term, open-label extension (OLE) study for patients completing phase 2 clinical trials, including FAB-CL-202, FAB-CL-203, and FAB-CL-204. The study included a period with migalastat 150 mg every other day (QOD), then a dose-escalation period, followed by 150 mg QOD.
FACETS (AT1001-011, NCT00925301) was a phase 3, placebo-controlled study designed to evaluate the efficacy, safety, and PD of 6 months of migalastat 150 mg QOD versus placebo, followed by an 18-month open label extension (OLE) of migalastat in ERT-naive patients with Fabry disease and migalastat-amenable GLA variants.
AT1001-041 (NCT01458119) was a long-term OLE study evaluating the long-term safety and efficacy of migalastat in patients completing FAB-CL-205, AT1001-011, or AT1001-012
AT1001-042 (NCT02194985) is an ongoing, long-term OLE study evaluating the long-term safety and efficacy of migalastat in patients who participated in AT1001-012 or AT1001-041.
The analysis evaluates CBV events reported as treatment-emergent adverse events (TEAEs) during migalastat 150 mg QOD treatment in patients with amenable mutations in phase 2 and phase 3 clinical trials.
CBV events were identified by searching medical history and TEAE listings with stroke-related terms, including brain stem ischemia, cerebral infarction, cerebral hemorrhage, cerebral ischemia, cerebrovascular accident, embolic stroke, and TIA.
Only amenable patients who received at least 1 dose of migalastat 150 mg QOD were included in this analysis.

[3] = 150 mg QOD, FAB-CL 202, 203, 204, and 205 (n = 17)

SMILES: OC[C@H]1NC[C@H](O)[C@@H](O)[C@H]1O [migalastat, (2R,3S,4R,5S)-2-(hydroxymethyl) piperdine-3,4,5-triol]
- EGFR-related exponential index on CL/F, Estimate (% RSE) ([1]; Bootstrap): 0.925 (5.25%);
- Fractional Change in V2/F in subjects without Fabry disease (decrease in V2/F), Estimate (% RSE) ([1]; Bootstrap): −0.305 (12.3%);
- Fractional Change in total CL/F in subjects without Fabry disease (decrease in total CL/F), Estimate (% RSE) ([1]; Bootstrap): −0.151 (23.5%);
- Ka (intercept), Estimate (% RSE) ([1]; Bootstrap): 0.256 (8.60%); h^−1
- Ka (slope), Estimate (% RSE) ([1]; Bootstrap): 0.282 (7.45%);
- Lag time, Estimate (% RSE) ([1]; Bootstrap): 0.176 (4.52%); h
- Typical V2/F, Estimate (% RSE) ([1]; Bootstrap): 69.7 (4.8%); L
- Typical Q/F, Estimate (% RSE) ([1]; Bootstrap): 1.01 (4.59%); L/h
- Typical V3/F, Estimate (% RSE) ([1]; Bootstrap): 27.5 (11.9%); L
- EGFR-related exponential index on CL/F, Estimate (% RSE) ([1]; NONMEM): 0.922 (5.64%);
- Fractional Change in V2/F in subjects without Fabry disease (decrease in V2/F), Estimate (% RSE) ([1]; NONMEM): −0.306 (12.8%);
- Fractional Change in total CL/F in subjects without Fabry disease (decrease in total CL/F), Estimate (% RSE) ([1]; NONMEM): 0.150 (24.9%);
- Ka (intercept), Estimate (% RSE) ([1]; NONMEM): 0.256 (9.41%); h^−1
- Ka (slope), Estimate (% RSE) ([1]; NONMEM): 0.284 (9.12%);
- Lag time, Estimate (% RSE) ([1]; NONMEM): 0.175 (4.65%); h
- Typical V2/F, Estimate (% RSE) ([1]; NONMEM): 70.1 (5.29%); L
- Typical Q/F, Estimate (% RSE) ([1]; NONMEM): 1.00 (5.17%); L/h
- Typical V3/F, Estimate (% RSE) ([1]; NONMEM): 27.5 (11.7%); L
- Average difference in migalastat exposure with subject weight ([1]; body weights between 50 and 170 kg): < 2 fold
- Time within which the drug is considered fairly fully absorbed ([1]; oral, regardless of the absorption model chosen): 7 to 10 h
- Any CBV event during treatment, unique patients ([2]; 150 mg QOD, ATTRACT (n = 49)): 2 (4%)
- Brain stem ischemia during treatment, patients ([2]; 150 mg QOD, ATTRACT (n = 49)): 0
- Cerebral hemorrhage during treatment, patients ([2]; 150 mg QOD, ATTRACT (n = 49)): 0
- Cerebral infarction during treatment, patients ([2]; 150 mg QOD, ATTRACT (n = 49)): 0
- Cerebral ischemia during treatment, patients ([2]; 150 mg QOD, ATTRACT (n = 49)): 0
- Cerebrovascular accident during treatment, patients ([2]; 150 mg QOD, ATTRACT (n = 49)): 0
- Embolic stroke during treatment, patients ([2]; 150 mg QOD, ATTRACT (n = 49)): 0
- Transient ischemic attack during treatment, patients ([2]; 150 mg QOD, ATTRACT (n = 49)): 2 (4%)
- Any CBV event during treatment, unique patients [2, 3]: 3 (18%)
- Brain stem ischemia during treatment, patients [2, 3]: 0
- Cerebral hemorrhage during treatment, patients [2, 3]: 0
- Cerebral infarction during treatment, patients [2, 3]: 1 (6%)
- Cerebral ischemia during treatment, patients [2, 3]: 1 (6%)
- Cerebrovascular accident during treatment, patients [2, 3]: 1 (6%)
- Embolic stroke during treatment, patients [2, 3]: 0
- Transient ischemic attack during treatment, patients [2, 3]: 1 (6%)
- Any CBV event during treatment, unique patients ([2]; 150 mg QOD, FACETS (n = 48)): 3 (6%)
- Brain stem ischemia during treatment, patients ([2]; 150 mg QOD, FACETS (n = 48)): 1 (2%)
- Cerebral hemorrhage during treatment, patients ([2]; 150 mg QOD, FACETS (n = 48)): 1 (2%)
- Cerebral infarction during treatment, patients ([2]; 150 mg QOD, FACETS (n = 48)): 0
- Cerebral ischemia during treatment, patients ([2]; 150 mg QOD, FACETS (n = 48)): 0
- Cerebrovascular accident during treatment, patients ([2]; 150 mg QOD, FACETS (n = 48)): 0
- Embolic stroke during treatment, patients ([2]; 150 mg QOD, FACETS (n = 48)): 0
- Transient ischemic attack during treatment, patients ([2]; 150 mg QOD, FACETS (n = 48)): 1 (2%)
- Number of CBV events reported during treatment ([2]; 150 mg QOD, N = 114): 11
- Brain stem ischemia during treatment, patients ([2]; 150 mg QOD, Total (N = 114)): 1 (1%)
- Cerebral hemorrhage during treatment, patients ([2]; 150 mg QOD, Total (N = 114)): 1 (1%)
- Cerebral infarction during treatment, patients ([2]; 150 mg QOD, Total (N = 114)): 1 (1%)
- Cerebral ischemia during treatment, patients ([2]; 150 mg QOD, Total (N = 114)): 1 (1%)
- Cerebrovascular accident during treatment, patients ([2]; 150 mg QOD, Total (N = 114)): 1 (1%)
- Embolic stroke during treatment, patients ([2]; 150 mg QOD, Total (N = 114)): 0
- Transient ischemic attack during treatment, patients ([2]; 150 mg QOD, Total (N = 114)): 4 (4%)
- CBV events categorized as serious adverse events (SAE) ([2]; 150 mg QOD, of 11 CBV events): Seven
- CBV events considered related to treatment ([2]; 150 mg QOD, of 11 CBV events): None
- CBV events mild or moderate in severity ([2]; 150 mg QOD, of 11 CBV events): 82%
- CBV events that led to treatment discontinuation ([2]; 150 mg QOD, of 11 CBV events): Two
- Time on migalastat 150 mg QOD at first event onset, mean (SD) ([2]; 8 patients with CBV events): 1.1 (1.1) years
- Patients with pre-migalastat CBV event who did not experience new CBV event during treatment ([2]; among the 16 patients with pre-migalastat CBV event): 10 (63%)
- Overall incidence of CBV events during migalastat treatment ([2]; average of 4 years of migalastat): low

— US20240293387A1, “Methods of Treating Fabry Disease in Pediatric Patients” (Amicus Therapeutics, Inc., priority 2021, published 2024)
